The values below are quoted from earlier work in US20120191185A1, “OPHTHALMIC INTRAOCULAR LENS FOR PROMOTING HEALING” (priority 2011, published 2012).

Data set [1] deals with posterior capsule opacification. The following applies: rabbits.
The conditions of data set [2]: subconjunctival administration.
For data set [3] the following is noted: primates.
A further data set has as its system corneal anterior stroma. The following applies: mammals, clinical setting.

For the compound `O=c1[nH]cc(F)c(=O)[nH]1` [5-fluorouracil], in data set [1], the “effect on posterior capsule opacification” value is reported as “reduces posterior capsule opacification”. Also, the ocular complications entry in data set [2] is “corneal epithelial defects and other ocular complications”.
On to `COc1cc2c(c(OC)c1OC)-c1ccc(OC)c(=O)cc1[C@@H](NC(C)=O)CC2` [colchicine], for which, in the data set with lens epithelial cell, the “inhibition of lens epithelial cell proliferation and migration” value is on record as “potent inhibitor”. The “toxic effect on the optic nerve” value in data set [3] is reported as “temporary toxic effect on the optic nerve”.
As to platelet derived growth factor, in the data set with corneal anterior stroma, the “corneal anterior stroma healing” value is “accelerate corneal anterior stroma healing”.
